Results from patent publication US6043275A, “3,7-dithiaprostanoic acid derivative” (Ono Pharmaceutical Co., Ltd., priority 1998, dated 2000).

Columns and labels:
mouse EP3 α = biological target: T1, mouse EP3 α (Mus musculus, UniProt P30557); assay: Binding assay using cell expressing the prostanoid receptor subtypes (EP3α); details: more polar isomer; membrane fraction of CHO cell expressing mouse EP3α; [3H]-PGE2 2.5 nM; 1 hour, room temperature; pH 6.0; read-out: dissociation constant Ki (μM) EP3α
T1 construct: expressed in transfected cells; host or cells: CHO cells (membrane fraction)
T1 sequence (P30557 1-365): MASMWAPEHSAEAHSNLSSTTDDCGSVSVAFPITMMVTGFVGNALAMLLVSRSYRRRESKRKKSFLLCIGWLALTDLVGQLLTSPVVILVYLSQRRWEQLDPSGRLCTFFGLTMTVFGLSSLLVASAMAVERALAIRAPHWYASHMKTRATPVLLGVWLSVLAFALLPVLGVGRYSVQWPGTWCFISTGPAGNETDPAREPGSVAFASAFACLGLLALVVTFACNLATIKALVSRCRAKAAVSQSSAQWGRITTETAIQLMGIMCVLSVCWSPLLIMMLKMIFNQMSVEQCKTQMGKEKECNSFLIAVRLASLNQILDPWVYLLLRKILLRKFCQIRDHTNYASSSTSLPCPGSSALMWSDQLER
Procedure: For example, in a standard laboratory test, such effects of the compound of the present invention were confirmed by binding assay using cell expressing the prostanoid receptor subtypes. (i) Binding assay using cell expressing the prostanoid receptor subtypes
The preparation of membrane fraction was carried out according to the method of Sugimoto et al [J. Biol. Chem. 267, 6463-6466 (1 992)], using CHO cell expressing prostanoid receptor subtype (mouse EP3 α, EP4).
The standard assay mixture containing membrane fraction (0.5 mg/ml), [^3 H]-PGE2 in a final volume of 200 μl was incubated for 1 hour at room temperature. The reaction was terminated by addition of 3 ml of ice-cold buffer. The mixture was rapidly filtered through a glass filter (GF/B). The radioactivity associated with the filter was measured by liquid scintillation counter.
Kd and Bmax values were determined from Scatchard plots [Ann. N.Y. Acad. Sci., 51, 660 (1949)]. Non-specific binding was calculated as the amount bond in the presence of an excess (2.5 μM) of unlabeled PGE2. In the experiment for competition of specific [^3 H]-PGE2 binding by the compounds of the present invention, [^3 H]-PGE2 was added at a concentration of 2.5 nM and the compound of the present invention was added at a various concentration.
The following buffer was used in all reactions. Buffer: 10 mM potassium phosphate (pH 6.0), 1 mM EDTA, 10 mM MgCl2, 0.1 M NaCl
The dissociation constant (Ki) of each compound was calculated by the following equation.

mouse EP4 = biological target: T2, mouse EP4 (Mus musculus, UniProt P32240); assay: Binding assay using cell expressing the prostanoid receptor subtypes (EP4); details: more polar isomer; membrane fraction of CHO cell expressing mouse EP4; [3H]-PGE2 2.5 nM; 1 hour, room temperature; pH 6.0; read-out: dissociation constant Ki (μM) EP4
T2 construct: expressed in transfected cells; host or cells: CHO cells (membrane fraction)
Procedure: For example, in a standard laboratory test, such effects of the compound of the present invention were confirmed by binding assay using cell expressing the prostanoid receptor subtypes. (i) Binding assay using cell expressing the prostanoid receptor subtypes The preparation of membrane fraction was carried out according to the method of Sugimoto et al [J. Biol. […] The standard assay mixture containing membrane fraction (0.5 mg/ml), [^3 H]-PGE2 in a final volume of 200 μl was incubated for 1 hour at room temperature. The reaction was terminated by addition of 3 ml of ice-cold buffer. The mixture was rapidly filtered through a glass filter (GF/B). The radioactivity associated with the filter was measured by liquid scintillation counter. Kd and Bmax values were determined from Scatchard plots [Ann. N.Y. Acad. Sci., 51, 660 (1949)]. Non-specific binding was calculated as the amount bond in the presence of an excess (2.5 μM) of unlabeled PGE2. In the experiment for competition of specific [^3 H]-PGE2 binding by the compounds of the present invention, [^3 H]-PGE2 was added at a concentration of 2.5 nM and the compound of the present invention was added at a various concentration. The following buffer was used in all reactions. Buffer: 10 mM potassium phosphate (pH 6.0), 1 mM EDTA, 10 mM MgCl2, 0.1 M NaCl The dissociation constant (Ki) of each compound was calculated by the following equation.

T2 sequence (P32240 whole entry): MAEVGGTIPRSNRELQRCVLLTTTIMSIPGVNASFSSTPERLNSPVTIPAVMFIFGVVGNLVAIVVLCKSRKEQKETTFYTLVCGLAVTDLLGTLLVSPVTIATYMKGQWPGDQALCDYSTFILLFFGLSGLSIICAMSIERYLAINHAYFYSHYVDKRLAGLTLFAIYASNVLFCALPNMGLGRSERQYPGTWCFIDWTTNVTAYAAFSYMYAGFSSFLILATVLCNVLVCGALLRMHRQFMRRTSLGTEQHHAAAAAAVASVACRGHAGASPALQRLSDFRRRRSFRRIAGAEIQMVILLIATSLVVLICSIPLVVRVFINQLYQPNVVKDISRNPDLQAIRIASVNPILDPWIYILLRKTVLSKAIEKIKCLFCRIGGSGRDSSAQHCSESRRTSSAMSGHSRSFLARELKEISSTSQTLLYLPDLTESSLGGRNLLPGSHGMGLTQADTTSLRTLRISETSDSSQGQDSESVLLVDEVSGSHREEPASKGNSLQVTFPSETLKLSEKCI

SMILES | Ki (mouse EP3 α) [µM] | Ki (mouse EP4) [µM]
COc1ccc(CC(O)/C=C/[C@H]2[C@H](O)CC(=O)[C@@H]2SCCCSCC(=O)O)cc1Cl (single isomer, unassigned) [Example 2(l), 11 α, 15-dihydroxy-9-oxo-16-(4-methoxy-3-chlorophenyl)-17,18,19,20-tetranor-3,7-dithiaprost-13E-enoic acid] | 2.2 | 0.011
C=CCOCc1cccc(CC(O)/C=C/[C@H]2[C@H](O)CC(=O)[C@@H]2SCCCSCC(=O)O)c1 (single isomer, unassigned) [Example 2(lll), 11 α, 15-dihydroxy-9-oxo-16-[3-(2-propenyloxymethyl)phenyl]-17,18,19,20-tetranor-3,7-dithiaprost-13E-enoic acid] | 6.2 | 0.0014
O=C(O)CSCCCS[C@H]1C(=O)C[C@@H](O)[C@@H]1/C=C/C(O)Cc1cccc(COC2CCCCC2)c1 (single isomer, unassigned) [Example 2(mmm), 11 α, 15-dihydroxy-9-oxo-16-(3-cyclohexyloxymethylphenyl)-17,18,19,20-tetranor-3,7-dithiaprost-13E-enoic acid] | > 10 | 0.04
O=C(O)CSCCCS[C@H]1C(=O)C[C@@H](O)[C@@H]1/C=C/C(O)Cc1cccc(COc2ccccc2)c1 (single isomer, unassigned) [Example 2(rr), 11 α, 15-dihydroxy-9-oxo-16-(3-phenyloxymethylphenyl)-17,18,19,20-tetranor-3,7-dithiaprost-13E-enoic acid] | 1.9 | 0.0042
COCc1cccc(C[C@H](O)/C=C/[C@H]2[C@H](O)CC(=O)[C@@H]2SCCCSCC(=O)O)c1 [Example 2, 11 α, 15 α-dihydroxy-9-oxo-16-(3-methoxymethylphenyl)-17,18,19,20-tetranor-3,7-dithiaprost-13E-enoic acid] | 1.2 | 0.0097

These reach a lower Ki (mouse EP3 α). Values come first.

Ki (mouse EP3 α) [µM] | Ki (mouse EP4) [µM] | SMILES
0.97 | 0.001 | O=C(O)CSCCCS[C@H]1C(=O)C[C@@H](O)[C@@H]1/C=C/C(O)Cc1cccc(-c2ccccc2)c1 (single isomer, unassigned) [Example 2(r), 11 α, 15-dihydroxy-9-oxo-16-(biphenyl-3-yl)-17,18,19,20-tetranor-3,7-dithiaprost-13E-enoic acid]
0.9 | 0.0065 | O=C(O)CSCCCS[C@H]1C(=O)C[C@@H](O)[C@@H]1/C=C/C(O)Cc1cccc(CCF)c1 (single isomer, unassigned) [Example 2(tt), 11 α, 15-dihydroxy-9-oxo-16-[3-(2-fluoroethyl)phenyl]-17,18,19,20-tetranor-3,7-dithiaprost-13E-enoic acid]
0.51 | 0.0099 | COc1cccc(CC(O)/C=C/[C@H]2[C@H](O)CC(=O)[C@@H]2SCCCSCC(=O)O)c1 (single isomer, unassigned) [Example 2(f), 11 α, 15-dihydroxy-9-oxo-16-(3-methoxyphenyl)-17,18,19,20-tetranor-3,7-dithiaprost-13E-enoic acid]
0.25 | 0.0028 | O=C(O)CSCCCS[C@H]1C(=O)C[C@@H](O)[C@@H]1/C=C/C(O)Cc1cccc(-c2ccco2)c1 (single isomer, unassigned) [Example 2(ii), 11 α, 15-dihydroxy-9-oxo-16-[3-(2-furyl)phenyl]-17,18,19,20-tetranor-3,7-dithiaprost-13E-enoic acid]
0.23 | 0.0003 | O=C(O)CSCCCS[C@H]1C(=O)C[C@@H](O)[C@@H]1/C=C/C(O)Cc1cccc(C#Cc2ccccc2)c1 (single isomer, unassigned) [Example 2(bbb), 11 α, 15-dihydroxy-9-oxo-16-(3-phenylethynylphenyl)-17,18,19,20-tetranor-3,7-dithiaprost-13E-enoic acid]
